Experimental findings from a melting point compilation (Tetko et al.; mined from patent text by program, amines drawn as free bases though some values may be those of a salt) are described below.

Each structure is given as a SMILES string. Bounds are passed on as bounds.

As usually defined, the melting point is the temperature of the solid-liquid transition.

The compound `O=c1c(OC(F)F)cn(-c2ccccc2F)nc1-c1ccnn1-c1ccccc1` yielded a melting point of 109 to 114 °C.

In the case of `Cc1cccc([C@H]2[C@H](C(=O)Nc3ccc(F)c(F)c3)C2(C)C)c1` (relative stereo), the melting point was in the range of 110 to 113 °C.

In turn, `O=CNC1Cc2cc(Br)ccc2N(C=O)C1` (stereo not given) displayed a melting point of 174 to 178 °C.

In the case of `CCNC(=S)NC1CCCCc2sccc21` (stereo not given), the melting point lay within 117 to 120 °C.

Turning to `O=C1NC(=S)S/C1=C\c1ccc(COc2ccc(C(=O)c3ccccc3)cc2)cc1`, the melting point lay in the range of 244 to 246 °C.

The compound `NS(=O)(=O)c1c(S)cccc1C(F)(F)F` gave a melting point of 155 °C.

Compound `Cc1ccc(S(=O)(=O)N2[C@@H](C(N)=O)CC[C@H]2c2ccc(F)cc2)cc1` (racemic) gave a melting point of 137 °C.

As for `Cc1ccccc1N(CN1C(=O)CSC1=O)C(=O)CCl`, the melting point lay in the range of 133 to 136 °C.

`O=[N+]([O-])c1oc2c(CC(CO)CO)cccc2c1-c1ccccc1` displayed a melting point of 166 to 168 °C.

Regarding `Cc1oc(-c2ccccc2)nc1COc1ccc2oc(CCCC#N)cc2c1`, the melting point was 114 to 115 °C.

Compound `CN1C(=O)SC(Cc2ccc(N)cc2)C1=O` (stereo not given) returned a melting point of 91 to 92 °C.

Take `Cc1ccc(Cl)c(Nc2ccccc2-c2nsc(=O)o2)c1Cl`: the melting point fell in the range of 135 to 137 °C.

Regarding `Cc1nc(-n2cc(-c3ccccn3)nn2)sc1C(=O)NCc1ccccc1`, the melting point was 184 to 187 °C.

Regarding `Cc1c(NC(=O)c2ccc(-c3cc4ccccc4s3)cc2)ccc2cc(CN3CCCC3)cnc12`, the melting point lay in the range of 217 to 218 °C.

Compound `COC(=O)C1=C(C)NC(C)=C(C(=O)OCOC(=O)C(C)(C)C)C1c1ccccc1` (single isomer, unassigned; (+)) returned a melting point of 81 to 82 °C.

With `O=C(N[C@H]1CC[C@H](CCN2CCN(c3nccc4c3OCC4)CC2)CC1)c1ccc(N2CCCCC2)cc1`, the melting point was found to be 182 °C.

Compound `O=C(Nc1cccc(S(=O)(=O)C(F)(F)F)c1)c1cnn2c(C(F)F)cc(-c3ccc(C(F)(F)F)cc3)nc12` showed a melting point of 207 °C.

`C=CCOC(=O)c1cnc2c(cnn2CCC(C)C)c1N`: the melting point was in the range of 124 to 126 °C.

The compound `C#CC(C)(O)CCC=C(C)CCC=C(C)CCC=C(C)CCC=C(C)CCC=C(C)CCC=C(C)CCC=C(C)CCC=C(C)CCC=C(C)CCC=C(C)C` (stereo not given) displayed a melting point of 35.5 to 36.5 °C.

In turn, `COc1cc(Nc2nccc(Nc3ccc(OCCCO)cc3)n2)cc(OC)c1OC` displayed a melting point of 69 °C.

For the compound `CCCCc1cc2c(cc1/C=C/c1ccc(C(=O)O)cc1)C(C)(C)CCC2(C)C`, the melting point lay in the range of 192 to 194 °C.

In turn, `CCCC1=NN(c2ccc([N+](=O)[O-])cc2)C(=O)C1=CNc1ccccc1CC` had a melting point of 211 °C.

Regarding `Cc1cc(NC(=O)c2cnccc2C(F)(F)F)on1`, the melting point lay in the range of 53 to 55 °C.

Turning to `COC(=O)Cc1cc2c(s1)NC(=S)C(C)N=C2c1ccccc1Cl` (stereo not given), the melting point fell in the range of 196 to 197 °C.

Consider `O=c1c2cc(O)ccc2[nH]c2c([N+](=O)[O-])cc([N+](=O)[O-])c(Cl)c12`, for which the melting point was in the range of 278 to 281 °C.

`CC(=O)c1ccc(N(C(C)=O)c2ccccc2)cc1`: the melting point is 118 to 120 °C.

As for `CCOC(=O)CNC(=O)/C=C/S(=O)(=O)c1ccccc1`, the melting point lay in the range of 156 to 157 °C.

`COC(=O)C1=C(C)OC(OC)(OC)CC1NC(C)=O` (stereo not given) showed a melting point of 160 to 162 °C.

For the compound `Cc1ccc(S(=O)(=O)OCCC2CCc3ccccc3O2)cc1` (stereo not given), the melting point was 57 to 59 °C.

Consider `CC(C)CCC(O)C(CC1CCCCC1)NC(=O)C(Cc1c[nH]cn1)N(C)C(=O)C(Cc1ccccc1)NC(=O)N(C)CCN(C)C(=O)N1CCOCC1` (stereo not given), for which the melting point was 89 to 92 °C.

`C=CCSCC(N)C(=O)O` (stereo not given) gave a melting point of 212 to 213 °C.

`CCC(Oc1ccccc1C#N)C(=O)OC1CC(O)C=C2C=CC(C)C(CCC3CC(O)CC(=O)O3)C21` (mixture of isomers) showed a melting point of 95 to 97 °C.

In turn, `O=C(O)Cc1cnn(-c2ccccc2)c1-c1ccc(Cl)cc1` registered a melting point of 185 to 186 °C.

The compound `CC(=O)N[C@@H]1CCCC[C@H]1NS(=O)(=O)c1ccc(C)cc1` (relative stereo) returned a melting point of 174 to 176 °C.

For the compound `O=C1c2cccc(NC(=S)Nc3cc[nH]n3)c2C2CCCCN12` (stereo not given), the melting point was 208 °C.

`O=C1C(Cc2ccccc2CF)c2ccccc2C12COc1cc3c(cc12)OCCO3` (stereo not given) displayed a melting point of 188 to 190 °C.

As for `CCOC(=O)c1ccc(-c2cccc(OCc3ccc(COC(=O)c4ccccc4)c(COC(=O)c4ccccc4)c3)c2)nc1`, the melting point was in the range of 118 to 120 °C.

`C=C(C)COc1cc(Cl)ccc1[N+](=O)[O-]` registered a melting point of 47 to 49 °C.

As for `Nc1nc2ccc(Cc3ccccc3)cc2s1`, the melting point lay within 173 to 175 °C.

As to `CC1(C)CC(OC(=O)CCCCCCCCC(=O)OC2CC(C)(C)N(CC#N)C(C)(C)C2)CC(C)(C)N1CC#N`, the melting point stood at 91 °C.

The compound `COCc1c(C(=O)OC(C)C)ncc2[nH]c3ccc(CCc4ccc(Cl)cc4)cc3c12` returned a melting point of 149 to 151 °C.

Compound `O=C1c2ccccc2C(=O)N1OCCc1cn(C(c2ccccc2)(c2ccccc2)c2ccccc2)cn1` returned a melting point of 177 °C.

On to `CCCCNC(=O)Nc1c(N)cccc1C(=O)NCC1CCN(C(c2ccccc2)c2ccccc2)CC1`, for which the melting point was 212 to 213 °C.

Consider `COc1ccc2c(c1)sc1ncc(CO)n12`, for which the melting point lay in the range of 202 to 204 °C.

`COC(=O)c1cc2ccc(OC)cc2c2c1C=CC(c1ccc(OC)cc1)(c1ccc(OC)cc1)O2` returned a melting point of 162 to 164 °C.

For `Oc1cccc2c1CCC=C2`, the melting point was in the range of 67 to 68 °C.

Regarding `CCCCCOc1cc(C=Cc2nc3c(s2)NCCCC3)ccc1OC`, the melting point lay within 124 to 125 °C.

Take `CCOc1cccc(NC(=O)NC2N=C(c3ccccc3F)c3ccccc3N(CC(=O)N3CC4CCC(CC4)C3)C2=O)c1` (stereo not given): the melting point fell in the range of 158 to 166 °C.

On to `Cc1cc(Cc2cc(C(C)(C)CC(C)(C)C)cc(C(C)(C)CC(C)(C)C)c2O)c(O)c(-n2nc3ccccc3n2)c1`, for which the melting point worked out at 138 °C.

In the case of `COC1CCN(c2c(Cl)cc3c4c(cccc24)C(=O)N(O)C3=O)C1` (stereo not given), the melting point lay within 136 to 142 °C.

Consider `CNC(=C[N+](=O)[O-])SCc1ccc(CN(C)C)o1`, for which the melting point lay within 101 to 103 °C.

Turning to `Cc1csc(-c2nc(=O)c3ccccc3s2)n1`, the melting point was in the range of 210 to 211 °C.

Turning to `O=C(Cc1cccs1)Nc1cc(N2CC(c3ccccc3)OC2=O)ccn1` (stereo not given), the melting point lay within 109 to 110 °C.

`C=CCN(CC=C)Cc1c(-c2ccccc2)sc(N)c1C(=O)c1ccc(Cl)cc1`: the melting point lay within 155 to 156 °C.

`COc1ccc2cc(C(C)C(=O)OCc3ccc(OC(=O)OCC[Si](C)(C)C)cc3)ccc2c1` (stereo not given) yielded a melting point of 58 to 59 °C.

For the compound `CC(C)(C)OC(=O)N1CCC(c2ccc(N3C[C@H](COS(C)(=O)=O)OC3=O)cc2F)CC1`, the melting point lay within 163 to 165 °C.

In turn, `COC(=O)CC(c1ccc(OC)c(OC)c1)N1C(=O)c2ccccc2C1=O` (stereo not given) came in with a melting point of 114 to 116 °C.

Compound `O=C(O)Cn1cc(Cc2nc3c(F)c(F)cc(F)c3s2)c2cc(Cl)ccc21` came in with a melting point of 188 to 189 °C.

The compound `C=CC[C@@H](CO)[C@@H](O)[C@H](O)C(=O)CO` gave a melting point of 112 to 113 °C.

As to `O=C(CCc1ccccc1)Nc1ccc(C(=O)NN=C2C(=O)Nc3ccc(Br)cc32)cc1`, the melting point was 326 °C.

In the case of `CC(C)S(=O)(=O)Nc1cc(C(=O)c2ccccc2)ccc1N`, the melting point was 150 to 152 °C.

In the case of `CC(O)CNc1ccc(NC(=O)n2ccc3cc(Oc4cc(CC(N)=O)ncn4)ccc32)cc1C(F)(F)F` (stereo not given), the melting point lay in the range of 226 to 230 °C.

For the compound `CCc1cc(O)n2ncnc2n1`, the melting point came to 212 °C.

With `CCOC(=O)c1cn(Cc2ccc(Oc3ccccc3)cc2)nc1O`, the melting point is 117 to 118 °C.

`Cc1c(NC(=O)C(CSC(=O)c2cccnc2)Cc2ccccc2)cccc1C(=O)O` (stereo not given) displayed a melting point of 80 to 86 °C.

On to `C#CC1(CO)C=CC(n2cc(C)c(=O)[nH]c2=O)O1` (stereo not given), for which the melting point lay within 207 to 209 °C.

As for `CC(C)(C)OC(=O)NN(C[C@H](O)[C@H](Cc1ccccc1)NC(=O)OCc1ccccc1)C1CCCCC1`, the melting point fell in the range of 142 to 143 °C.

The compound `O=C(NN=Cc1c(O)c(O)cc2ccccc12)c1cc2ccccc2cc1O` yielded a melting point of more than 285 °C.

The compound `Cn1nc(C(F)(F)F)c(CN2C(=O)C3(COc4cc5c(cc43)OCO5)c3ccccc32)c1Cl` (stereo not given) displayed a melting point of 180 to 182 °C.

In turn, `COCNC(=O)CNC(=O)OCc1ccccc1` had a melting point of 77 to 78 °C.

Compound `CCNc1c(C(=O)OCC)c(C)nc(N2CCN(C)CC2)c1[N+](=O)[O-]` had a melting point of 59 to 61 °C.

`CCOC(=O)c1nc[nH]c1F` had a melting point of 153 to 154 °C.

Turning to `Cc1cccc(-c2[nH]c(C(C)C)nc2-c2ccc(F)c(-c3cc[nH]c3)c2)n1`, the melting point lay within 106 to 110 °C.

For the compound `N#Cc1c(N2CCCN(c3ccccc3)CC2)cc[nH]c1=S`, the melting point is 128 to 132 °C.

`CS(=O)CCNC(N)=O` (stereo not given) displayed a melting point of 88 °C.

The compound `OCCCc1nc(-c2ccc(Cl)cc2)co1` had a melting point of 41 to 42 °C.

Consider `Cn1cc(C2=C(c3cn(CCC(=O)O)c4ccccc34)C(=O)NC2=O)c2ccccc21`, for which the melting point fell in the range of 256 to 258 °C.

Turning to `CCOC(=O)c1cc2cc(N3CCN(C(=O)OC(C)(C)C)CC3)ccc2o1`, the melting point lay in the range of 116 to 118 °C.

In turn, `Cc1nc2cc(NC(=O)c3cc4cc(F)ccc4n3Cc3cccc(F)c3)ccn2c1-c1ccccc1` showed a melting point of 217 to 218 °C.

With `Cc1[nH]c(=O)n(C2CCCCC2)c1-c1ccc(Oc2ccccc2)cc1`, the melting point was 198 °C.

On to `Cc1cccc(-c2ccc(-c3nnc(-c4cccc(C(=O)O)c4)o3)cc2)c1`, for which the melting point is 240 to 242 °C.

Consider `C=CCOc1cc(Cl)ccc1C(=O)OC`, for which the melting point was in the range of 47 to 55 °C.

The compound `Cn1nc(C(=O)NCc2ccc(Cl)cc2)c(=O)c2cc(I)cnc21` had a melting point of 207 to 208 °C.

The compound `CCOCCCN(C)Cc1ccc(NC(=O)C2=Cc3cc(-c4ccc(OCC)cc4)ccc3S(=O)(=O)CC2)cc1` returned a melting point of 197 to 198 °C.

The compound `O=C1Cc2cccc(Nc3ccccc3)c2N1` came in with a melting point of 166 to 168 °C.
